Data as given in ChEMBL document CHEMBL5131408, “Novel O-acylated amidoximes and substituted 1,2,4-oxadiazoles synthesised from (+)-ketopinic acid possessing potent virus-inhibiting activity against phylogenetically distinct influenza A viruses” (Bioorg Med Chem Lett, 2022).

Assays:
[1] = test system: Influenza A virus; test: Antiviral activity against Influenza A virus A/Anhui/1/2013 (H7N9) infected in MDCK cells assessed as inhibition of viral replication; assay type: functional, organism-based
[2] = Selectivity index, ratio of CC50 for cytotoxicity against MDCK cells infected with Influenza A virus A/Puerto Rico/8/34 (H1N1) to IC50 for antiviral activity against Influenza A virus A/Puerto Rico/8/34 (H1N1) infected in MDCK cells; assay type: toxicity, cell-based; conditions: dog; read-out: Ratio CC50/IC50
[3] = test system: Influenza A virus; test: Antiviral activity against Influenza A virus A/Puerto Rico/8/34 (H1N1) infected in MDCK cells assessed as inhibition of viral replication; assay type: functional, organism-based
[4] = Cytotoxicity against MDCK cells infected with Influenza A virus A/Anhui/1/2013 (H7N9) assessed as reduction in cell viability; assay type: toxicity, cell-based, Canis lupus familiaris; conditions: dog
[5] = Cytotoxicity against MDCK cells infected with Influenza A virus A/Puerto Rico/8/34 (H1N1) assessed as reduction in cell viability; assay type: toxicity, cell-based, Canis lupus familiaris; conditions: dog
[6] = Selectivity index, ratio of CC50 for cytotoxicity against MDCK cells infected with Influenza A virus A/Anhui/1/2013 (H7N9) to IC50 for antiviral activity against Influenza A virus A/Anhui/1/2013 (H7N9) infected in MDCK cells; assay type: toxicity, cell-based; conditions: dog; read-out: Ratio CC50/IC50

| SMILES | IC50 [1] [µM] | selectivity ratio [2] | IC50 [3] [µM] | CC50 [4] [µM] | CC50 [5] [µM] | selectivity ratio [6] |
| --- | --- | --- | --- | --- | --- | --- |
| CC1(C)[C@@H]2CC[C@@]1(C(=O)O/N=C(\N)c1cccnc1)C(=O)C2 | > 332 | > 10 | 104 | 831 | > 997 | 3 |
| CC1(C)[C@@H]2CC[C@@]1(c1nc(-c3ccccn3)no1)C(=O)C2 | – | – | > 1000 | – | > 1000 | – |
| CC1(C)[C@@H]2CC[C@@]1(c1nc(-c3ccc(C(F)(F)F)cc3)no1)C(=O)C2 | – | 5 | 7 | – | 32 | – |
| CC1(C)[C@@H]2CC[C@@]1(C(=O)O/N=C(\N)Cc1ccc(Cl)cc1)C(=O)C2 | – | 5 | 15 | – | 73 | – |
| CC/C(N)=N/OC(=O)[C@]12CC[C@H](CC1=O)C2(C)C | – | 5 | 162 | – | 807 | – |
| CC1(C)[C@@H]2CC[C@@]1(c1nc(-c3ccc(Br)cc3)no1)C(=O)C2 | – | 6 | 6 | – | 37 | – |
| CC1(C)[C@@H]2CC[C@@]1(c1nc(Cc3ccc(Cl)cc3)no1)C(=O)C2 | 8 | > 25 | 36 | > 906 | > 906 | 120 |
| CC1(C)[C@@H]2CC[C@@]1(c1nc(-c3ccc(Cl)cc3)no1)C(=O)C2 | – | 2 | 33 | – | 52 | – |
| CC1(C)[C@@H]2CC[C@@]1(c1nc(Cc3ccc(Br)cc3)no1)C(=O)C2 | 267 | > 60 | 13 | > 800 | > 792 | 3 |
| CC1(C)[C@@H]2CC[C@@]1(C(=O)O/N=C(\N)c1cccc(F)c1)C(=O)C2 | 21 | 26 | 6 | 79 | 155 | 4 |
| CC(C)(C)/C(N)=N/OC(=O)[C@]12CC[C@H](CC1=O)C2(C)C | – | 1 | 975 | – | > 1140 | – |
| CN(C)Cc1noc([C@]23CC[C@H](CC2=O)C3(C)C)n1 | – | 1 | 913 | – | > 1190 | – |
| CC1(C)[C@@H]2CC[C@@]1(c1nc(-c3ccccc3)no1)C(=O)C2 | > 117 | 37 | 5 | 199 | 198 | 2 |
| C/C(N)=N/OC(=O)[C@]12CC[C@H](CC1=O)C2(C)C | – | 3 | 175 | – | 545 | – |
| CC1(C)[C@@H]2CC[C@@]1(c1nc(Cc3ccccc3F)no1)C(=O)C2 | – | 5 | 78 | – | 394 | – |
| CCC(CC)O[C@@H]1C=C(C(=O)O)C[C@H](N)[C@H]1NC(C)=O [OSELTAMIVIR CARBOXYLATE] | 0.16 | – | 0.18 | > 100 | > 100 | > 625 |
| CC(C)/C(N)=N/OC(=O)[C@]12CC[C@H](CC1=O)C2(C)C | – | 14 | 50 | – | 730 | – |
| CC1(C)[C@@H]2CC[C@@]1(C(=O)O/N=C(\N)c1ccncc1)C(=O)C2 | – | 11 | 78 | – | 846 | – |
| Cc1noc([C@]23CC[C@H](CC2=O)C3(C)C)n1 | – | – | > 904 | – | > 904 | – |
| CCc1noc([C@]23CC[C@H](CC2=O)C3(C)C)n1 | – | > 4 | 193 | – | > 763 | – |

| SMILES | IC50 [1] [µM] | selectivity ratio [2] | IC50 [3] [µM] | CC50 [4] [µM] | CC50 [5] [µM] | selectivity ratio [6] |
| --- | --- | --- | --- | --- | --- | --- |
| CC1(C)[C@@H]2CC[C@@]1(C(=O)O/N=C(\N)Cc1ccc(Br)cc1)C(=O)C2 | – | 4 | 12 | – | 46 | – |
| CC1(C)[C@@H]2CC[C@@]1(C(=O)O/N=C(\N)Cc1ccccc1F)C(=O)C2 | – | 7 | 124 | – | 877 | – |
| CC1(C)[C@@H]2CC[C@@]1(C(=O)O/N=C(\N)c1ccccc1)C(=O)C2 | – | 5 | 59 | – | 290 | – |
| CC1(C)[C@@H]2CC[C@@]1(C(=O)O/N=C(\N)Cc1ccc(F)cc1)C(=O)C2 | – | < 2 | > 126 | – | 244 | – |
| CC1(C)[C@@H]2CC[C@@]1(c1nc(Cc3ccc(F)cc3)no1)C(=O)C2 | – | < 5 | > 105 | – | 497 | – |
| CC(N)C12CC3CC(CC(C3)C1)C2 (stereo not drawn) [RIMANTADINE] | 51 | 6 | 64 | – | 379 | 7 |
| CC1(C)[C@@H]2CC[C@@]1(C(=O)O/N=C(\N)c1ccccc1F)C(=O)C2 | – | 5 | 46 | – | 238 | – |
| CC1(C)[C@@H]2CC[C@@]1(c1nc(-c3ccncc3)no1)C(=O)C2 | > 353 | 40 | 25 | 1110 | 1000 | 3 |
| CC1(C)[C@@H]2CC[C@@]1(C(=O)O/N=C(\N)c1ccc(Cl)cc1)C(=O)C2 | > 30 | 17 | 14 | 75 | 239 | 3 |
| CN(C)C/C(N)=N/OC(=O)[C@]12CC[C@H](CC1=O)C2(C)C | – | 8 | 52 | – | 433 | – |
| CC1(C)[C@@H]2CC[C@@]1(c1nc(-c3ccccc3F)no1)C(=O)C2 | – | 37 | 12 | – | 455 | – |
| CC(C)c1noc([C@]23CC[C@H](CC2=O)C3(C)C)n1 | – | 5 | 188 | – | 897 | – |
| CC1(C)[C@@H]2CC[C@@]1(C(=O)O/N=C(\N)c1ccc(Br)cc1)C(=O)C2 | 3 | 31 | 13 | 354 | 387 | 118 |
| CC1(C)[C@@H]2CC[C@@]1(C(=O)O/N=C(\N)c1ccc(C(F)(F)F)cc1)C(=O)C2 | – | > 2 | 547 | – | > 1060 | – |
| CC1(C)[C@@H]2CC[C@@]1(C(=O)O/N=C(\N)c1ccccn1)C(=O)C2 | 110 | 42 | 18 | 688 | 751 | 6 |
| CC1(C)[C@@H]2CC[C@@]1(C(=O)O/N=C(\N)c1ccc(F)cc1)C(=O)C2 | > 94 | 29 | 8 | 94 | 236 | 1 |
| CC1(C)[C@@H]2CC[C@@]1(c1nc(-c3cccc(F)c3)no1)C(=O)C2 | 93 | > 231 | 6 | > 1000 | > 1280 | 11 |
| CC1(C)[C@@H]2CC[C@@]1(C(=O)O/N=C(\N)Cc1cccc(F)c1)C(=O)C2 | – | 3 | > 318 | – | 830 | – |
| CC1(C)[C@@H]2CC[C@@]1(c1nc(-c3ccc(F)cc3)no1)C(=O)C2 | 30 | 74 | 4 | 203 | 270 | 7 |
| CC(C)(C)c1noc([C@]23CC[C@H](CC2=O)C3(C)C)n1 | – | < 3 | > 382 | – | 1140 | – |
